Measured values from PubChem BioAssay AID602234 (The Scripps Research Institute Molecular Screening Center, 2012).
The source made the active and inactive calls. No rule for the calls is given here.

Assay: SRC3 coactivator transcriptional activity inhibitors, dose response, counter-screen for SRC1 inhibitor project, cell-based, luminescence (AID 602234);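 also: HEK293 cells co-transfected with pGL4.31 reporter and pBIND-SRC3 fusion vector; potency for inhibition of reporter luminescence with Gossypol as full inhibition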
Conditions: transfected HEK293 cells, counter-screen luciferase reporter

SMILES	IC50
O=C(COC(=O)c1ccc[nH]c1=O)Nc1ccc(N2CCCCC2)cc1	5.35 µM
COc1ccc(/C=C2/SC(=S)N(CCC(=O)O)C2=O)cc1	1.07 µM
COc1cc(C(=O)N/N=C(\c2ccccc2)c2ccccn2)cc(OC)c1OC	9.58 µM
Cc1ccc(S(=O)(=O)Nc2c(NC3CCCCC3)c3ccccc3oc2=O)c(C)c1	23.1 µM (inactive)
O=C(CCC1CCCC1)Nc1ccc(C(=O)NCc2cccnc2)cc1	34.2 µM (inactive)
CN(C)C(=O)c1ccc(-c2n[nH]c(=O)c3ccccc23)cc1	5.67 µM
COc1ccc(-c2cc(=O)oc3c(C)c(O)c(CN(C)C)cc23)cc1	12.1 µM (inactive)
COc1ccc(-n2cnc(N)c2C(=O)c2cccc([N+](=O)[O-])c2)cc1	3.87 µM
COc1cc2c(cc1OC)C(NC(=O)C(F)(F)F)CNC2=O (stereo not given)	2.62 µM
Cc1ccc(NC(=O)NC2CC(=O)N(c3ccc4c(c3)OCCO4)C2)cc1C (stereo not given)	1.08 µM
O=C(Nc1nc(-c2ccccn2)cs1)c1cccc(-n2cnnn2)c1	21.7 µM (inactive)
Cc1ccc(OCC(=O)c2cc(C)n(-c3ccccc3)c2C)c([N+](=O)[O-])n1	2.46 µM
Cc1ccc(/C=C2/SC(=S)N(CCCC(=O)Nc3ccc(O)cc3)C2=O)cc1	3.23 µM
Cc1sc2ncnc(N3CCC(C(=O)N(C)CC(=O)Nc4cccc(F)c4)CC3)c2c1C	8.1 µM
COc1cccc(C2=CC(=O)CC(C)(C)C2)c1	6.27 µM
O=C(c1ccncc1)N(Cc1cc2ccccc2[nH]c1=O)C1CCCCC1	5.34 µM
CCCCC(CC)COCCCN=Cc1c(O)[nH]c(=S)[nH]c1=O (stereo not given)	5.74 µM
COc1cc(OC)c2cc(C(=O)N/N=C/c3cccc(OC)c3O)[nH]c2c1	3.56 µM
c1cc2c(cn1)cnc1cscc12	4.51 µM
Cn1nc(C(F)(F)F)c(C#N)c1N1CCN(c2ccc(F)cc2)CC1	2.13 µM
COc1cc(C(=O)NC(=S)NNC(=O)c2cnccn2)cc(OC)c1OC	3.58 µM
CCCCN(CCCC)c1ncnc2nc[nH]c12	2.14 µM

SMILES	IC50
O=C(CCn1cnc(-c2ccccc2)c1-c1ccccc1)N/N=C/c1ccccc1O	12.2 µM (inactive)
Cc1c(CC(=O)NCCCC(=O)O)c(=O)oc2cc3c(cc12)CCC(C)(C)O3	3.86 µM
c1ccc(-c2nnc(-c3ccccn3)nc2NC2CCCCC2)cc1	2.89 µM
CC(C)n1c(-c2cccnc2)nc2cnccc21	5.26 µM
CN1CCN(c2cccc3c2C(=O)c2ccccc2C3=O)CC1	> 35.9 µM (inactive)
CCCS(=O)(=O)Nc1ccc(Nc2c3ccccc3nc3ccccc23)c(OC)c1	1.01 µM
CC(C)n1c(SCC(=O)Nc2nc3c(s2)CCCC3)nc2c1c(=O)n(C)c(=O)n2C	5.86 µM
Cc1ccc(S(=O)(=O)N2[C@@H](c3ccc(C(C)(C)C)cc3)C(C(=O)O)=CC[C@H]2c2ccc(Cl)cc2)cc1	10.4 µM (inactive)
NC(=S)NN=Cc1nccc2ccccc12	0.434 µM
Cc1c(C(=O)N/N=C/C(C)C)[nH]c2ccc([N+](=O)[O-])cc12	17 µM (inactive)
COc1ccccc1/C=C\C(=O)NCC(=O)N/N=C/c1cccc(OC)c1O	12.9 µM (inactive)
CCCCC(=O)Nc1cccn2ncnc12	10.9 µM (inactive)
CCN(Cc1ccncc1)C(=O)CC1C(=O)NCCN1Cc1ccc(F)c(F)c1 (stereo not given)	4.94 µM
Cc1ccc(N(Cc2cc(=O)[nH]c3ccccc23)C(=O)CCl)c(C)c1	2.67 µM
COc1ccccc1-c1cc2nc(-c3ccccc3)cc(N3CCN(C(=O)c4ccco4)CC3)n2n1	5.66 µM
COc1ccc(C(O)(C(C)C)C(CN2CCOCC2)c2ccc(Cl)cc2)cc1 (stereo not given)	13.4 µM (inactive)
C=C1C(=O)[C@@]23C[C@H]4[C@@H]5[C@@]6(C)CCC[C@@]57[C@@H]2[C@@H](O)[C@@H]1C[C@H]3[C@H]7N4C6	4.39 µM
N#Cc1cc2ccncc2c2ccccc12	4.76 µM
COc1ccccc1NS(=O)(=O)c1cccc(NC(=O)c2cncc(Br)c2)c1	7.71 µM
COc1ccc(NC(=O)CN(C)C(=O)C2(c3ccccc3)CCCC2)cc1	5.39 µM
Cc1ccc(/C=C2\SC(=S)N(CCCC(=O)NC3CCCC3)C2=O)cc1	1.58 µM
COc1cccc(CNc2ncnc3ccc(-c4c(C)noc4C)cc23)c1	9.92 µM

SMILES	IC50
COc1ccc(-c2ncncc2-c2ccccc2)c(O)c1	4.24 µM
Cc1ccc(S(=O)(=O)NC(CC(C)C)C(=O)NCC(c2ccco2)N2CCCCC2)cc1 (stereo not given)	3.11 µM
COc1cc([C@@H]2c3cc4c(cc3[C@@H](O[C@@H]3O[C@@H]5CO[C@@H](C)O[C@H]5[C@H](O)[C@H]3O)[C@H]3COC(=O)[C@H]23)OCO4)cc(OC)c1O	0.375 µM
c1cc2[nH]snc2c2nc(C3CC3)nc12	1.2 µM
Nc1nc(CCl)nc(Nc2cccc3ccccc23)n1	3.61 µM
Cc1nc2ccccn2c1-c1ccnc(=S)[nH]1	4.25 µM
CCCS(=O)(=O)c1c(S(=O)(=O)CCC)c2c(C)cccn2c1C(=O)N/N=C/c1cc(O)cc(O)c1	10.2 µM (inactive)
CCOC(=O)c1c(NC(=O)C(C)N2CCN(C(=O)c3ccco3)CC2)sc2c1CCCC2 (stereo not given)	9.89 µM
O=C(Nc1nc(-c2ccccn2)cs1)c1cccc(S(=O)(=O)N2CCOCC2)c1	> 12 µM (inactive)
C=CCn1c(O)c(C(C)=NCc2cc(OC)cc(OC)c2)c(=O)[nH]c1=O	1.02 µM
CC1CCN(C(=O)c2scc3c2OCCO3)CC1	10 µM (inactive)
Oc1ccc(C=NNc2ccccn2)c(O)c1	6.53 µM
O=C1c2cccc(OCc3ccc(F)cc3)c2CCN1Cc1ccccc1	4.15 µM
O=C(NC(=S)Nc1ccc(N2CCN(C(=O)c3ccccc3)CC2)cc1)c1cccs1	7.01 µM
COc1ccc(Nc2ncnc3ccc(Br)cc23)c(OC)c1	2.75 µM
O=C(CCl)N1N=C(c2ccco2)CC1c1ccco1 (stereo not given)	0.762 µM
CCOc1ccc(/C=C2\SC(=S)N(CCC(=O)O)C2=O)cc1	2.12 µM
c1cnc2ccc(-n3ccnc3)cc2c1	7.69 µM
Cn1nc(C(F)(F)F)c(C#N)c1N1CCN(c2ccccc2)CC1	4.13 µM
Cc1nc(N2CCC(C(N)=O)CC2)c2c(-c3cccs3)csc2n1	3.31 µM
C=CCc1ccccc1OCC(=O)N/N=C/c1ccc(OC(C)=O)cc1OC(C)=O	22.4 µM (inactive)
CC(=O)c1cc2c(C)cc(=O)oc2cc1O	11.2 µM (inactive)

SMILES	IC50
CCN1CCN(C(=S)c2ccc(-c3ccccc3)cc2)CC1	4.62 µM
CCc1ccc(-c2nc(CSCC(=O)NCc3ccco3)c(C)o2)cc1	6.43 µM
Fc1cccc(CSc2nnc3ccc(-c4ccncc4)nn23)c1	> 35.8 µM (inactive)
C=CCOc1ccc(/C=C2\SC(=S)N(CCC(=O)O)C2=O)cc1	3.47 µM
Fc1ccc(CSc2nnc(-c3ccncc3)o2)cc1	2.69 µM
Cc1nn(CC(=O)N2CCN(c3cccc(C(F)(F)F)c3)CC2)c(=O)c2cccn12	5.11 µM
COc1cc2c3c([nH]c2cc1F)C(=O)NCC3	3.73 µM
COc1ccc2[nH]c(=O)c(CN(CCN3CCCC3)C(=O)Nc3ccccc3Cl)cc2c1	8.7 µM
COC(=O)N(NC(=O)C(O)(CCC(C)C)CCC(C)C)c1ccccc1	> 35.9 µM (inactive)
O=C(N/N=C/c1cc([N+](=O)[O-])ccc1O)c1cccc(N2CCCC2=O)c1	> 12 µM (inactive)
CCc1ccc(/C=C2\SC(=S)N(CCCC(=O)NCCCN3CCOCC3)C2=O)cc1	3.28 µM
Cc1ccc(N=c2c([N+](=O)[O-])nn(-c3ccc4c(c3)OCCO4)n2O)cc1F	3.24 µM
Cc1ccc(O)c(C(=O)c2cnn(C(=O)COc3ccc(Cl)cc3)c2)c1	7.96 µM
CCN(c1ccccc1)S(=O)(=O)c1cc(C(=O)Nc2ccc(Br)cc2)ccc1F	6.6 µM
CCC(=O)c1ccc(Oc2nc3c(c(=O)n(C)c(=O)n3C)n2CC)cc1	2.87 µM
Cc1nc2c(-c3ccc(F)cc3)cnn2c(N)c1-c1ccccc1	11.4 µM (inactive)
O=[N+]([O-])c1ccc2c(c1)-c1ccccc1C2=NO	3.34 µM
CC(C)(C)OC(=O)NCC(=O)Oc1cc2oc(=O)cc(-c3ccccc3)c2cc1Cl	11.5 µM (inactive)
Cc1ccc(O)c(Nc2ncnc3ccc([N+](=O)[O-])cc23)c1	3.59 µM
O=C(Nc1cccc(C(F)(F)F)c1)Nc1nnc([C@@H]2C[C@H](O)[C@@H](CO)O2)s1	4.17 µM
CCn1c2ccccc2c2cnc(N=CN(C)C)c(C#N)c21	11.3 µM (inactive)
N#Cc1c(-c2ccccc2)c(C#N)c2nc3ccccc3n2c1N	21.9 µM (inactive)

SMILES	IC50
O=C(N/N=C/c1ccccc1O)/C(=C/c1ccccc1)CCO	5.52 µM
OCCN1CCN(C(=S)c2ccc(-c3ccccc3)cc2)CC1	1.28 µM
Cc1ccccc1C(=O)/C(C#N)=N/Nc1c(C)n(C)n(-c2ccccc2)c1=O	3.53 µM
Nc1ccc(Oc2ccccc2-c2ccccc2)cc1	7.34 µM
COc1ccccc1CNC(=O)C(=O)NCCC1CCCCN1S(=O)(=O)c1ccc(C)cc1 (stereo not given)	10.2 µM (inactive)
CC(=O)C1=C(C)NC2=C(C(=O)CC(C)(C)C2)C1C (stereo not given)	7.94 µM
COc1ccc2c(=O)cc(-c3ccncc3)oc2c1OC	3.16 µM
Cc1nc2sc(C(N)=O)c(N)c2c(C)c1CC(=O)c1ccccc1	2.63 µM
NS(=O)(=O)c1ccc(Nc2nc(-c3cccnc3)cs2)cc1	6.23 µM
S=C(c1ccc(-c2ccccc2)cc1)N1CCOCC1	7.59 µM
COc1ccc2c(c1)-c1c(ssc1=S)C(C)(C)N2C(=O)CSC1=NCCS1	11.2 µM (inactive)
Cc1ccc(NC(=O)CCC(=O)N/N=C/c2ccc(O)cc2O)cc1	13.5 µM (inactive)
Cc1cc(/C=C2\Cc3ccccc3C2=O)c(C)n1-c1ccccc1	8.76 µM
c1nc2sc3c(c2c2nnnn12)CCCC3	9.84 µM
O=C(O)c1ccccc1-c1c2cc(I)c(=O)c(I)c-2oc2c(I)c(O)c(I)cc12	> 35.9 µM (inactive)
Cc1ccc2occ(/C=N/NC(=O)[C@@H](N)Cc3ccccc3)c(=O)c2c1	6.9 µM
Cc1cc(C)nc(SCc2ccc(C(=O)N/N=C/c3cccc(O)c3O)cc2)n1	4.72 µM
O=[N+]([O-])c1cccc2c1ccc1ncccc12	10.3 µM (inactive)
CCOc1cc(C(N)=O)cc(Br)c1OC	6.86 µM
Cc1nn(C(C)(C)C)c(C)c1/C=N/OC(=O)Nc1ccc(Cl)c(Cl)c1	2.09 µM
c1ccc(-c2csc3ncnc(NCCN4CCOCC4)c23)cc1	8.04 µM
NC(=S)NN=Cc1nccc2c(N)cccc12	4.45 µM
